Values joined by “and” are separate entries in the source; they are usually repeats but may differ in a detail not shown here. Identical values can stand only once. Like-named read-outs stand apart in the source and are kept apart here.
Experiments:
[1] = model drug parameter fixed to literature reported value, cited from earlier work
[2] = clonazepam, literature referent value, cited from earlier work
[3] = Clinical bioequivalence study: plasma concentrations (LC-MS-MS) and noncompartmental PK after oral tablet; assay type: in vivo, human; conditions: for Concentration, individual subjects / concentration at 0 h / concentration at 0.5 h / concentration at 1 h / concentration at 1.5 h / concentration at 2 h / concentration at 3 h / concentration at 4 h / concentration at 6 h / concentration at 8 h / concentration at 10 h / concentration at 12 h / concentration at 24 h / concentration at 48 h / concentration at 72 h / concentration at 96 h: clonazepam 2 mg oral; for concentration at 0 h / concentration at 0.5 h / concentration at 1 h / concentration at 1.5 h / concentration at 2 h / concentration at 3 h / concentration at 4 h / concentration at 6 h / concentration at 8 h / concentration at 10 h / concentration at 12 h / concentration at 24 h / concentration at 48 h / concentration at 72 h / concentration at 96 h: po
[4] = Referent clinical, clonazepam 2 mg tablet oral, N = 14, mean ±1 SD
[5] = human, plasma, 2 mg, plasma, MEAN column of the sheet with 15 subject columns, read-out: Concentration, MEAN of raw data sheet
[6] = human, plasma, 2 mg, plasma, mean ±1 SD N=14, read-out: Concentration, Referent
[7] = human, plasma, 2 mg, plasma, one value per subject (A1-A6, A8, B1-B8; B5 consumed alcohol), read-out: Concentration, individual subjects
[8] = human, plasma, Referent clinical, clonazepam 2 mg tablet oral, N = 14, mean ±1 SD

O=C1CN=C(c2ccccc2Cl)c2cc([N+](=O)[O-])ccc2N1 [Clonazepam, clonazepam]
Pka, In silico acid/base equilibrium constant ([1]; first printed value): 1.86 | Pka, In silico acid/base equilibrium constant ([1]; second printed value): 11.89 | F (absolute oral bioavailability) [2]: ≥ 90% | Fa × Fg [2]: 93–95% | Fh [2]: 95–97% | Fa × Fg ([2]; listed as clonazepam): 93–95% | Fh ([2]; listed as clonazepam): 95–97% | CL/F [3, 4]: 3.88 ± 0.68 L/h | V/F [3, 4]: 186.84 ± 25.25 L | Concentration, individual subjects ([3]; plasma, 4 h, one value per subject (A1-A6, A8, B1-B8; B5 consumed alcohol)): 12.61 ng/mL and 14.34 ng/mL and 8.84 ng/mL and 12.65 ng/mL and 11.84 ng/mL and 14.63 ng/mL and 14.50 ng/mL and 12.96 ng/mL and 13.82 ng/mL and 11.06 ng/mL and 13.21 ng/mL and 17.02 ng/mL and 10.16 ng/mL and 10.55 ng/mL | Concentration, individual subjects ([3]; plasma, 6 h, one value per subject (A1-A6, A8, B1-B8; B5 consumed alcohol)): 10.50 ng/mL and 9.64 ng/mL and 15.51 ng/mL and 7.70 ng/mL and 10.12 ng/mL and 10.42 ng/mL and 11.00 ng/mL and 12.04 ng/mL and 12.42 ng/mL and 11.68 ng/mL and 12.48 ng/mL and 8.95 ng/mL and 12.72 ng/mL and 9.18 ng/mL and 8.60 ng/mL | Concentration, individual subjects ([3]; plasma, 8 h, one value per subject (A1-A6, A8, B1-B8; B5 consumed alcohol)): 8.58 ng/mL and 9.87 ng/mL and 7.12 ng/mL and 7.80 ng/mL and 8.38 ng/mL and 11.29 ng/mL and 11.40 ng/mL and 10.91 ng/mL and 10.98 ng/mL and 11.71 ng/mL and 8.16 ng/mL and 11.31 ng/mL and 8.88 ng/mL and 8.34 ng/mL | Concentration, individual subjects ([3]; plasma, 10 h, one value per subject (A1-A6, A8, B1-B8; B5 consumed alcohol)): 8.87 ng/mL and 11.42 ng/mL and 6.58 ng/mL and 7.89 ng/mL and 9.42 ng/mL and 8.97 ng/mL and 9.96 ng/mL and 11.87 ng/mL and 8.66 ng/mL and 9.83 ng/mL and 8.47 ng/mL and 9.69 ng/mL and 7.40 ng/mL and 7.44 ng/mL | Concentration, individual subjects ([3]; plasma, 12 h, one value per subject (A1-A6, A8, B1-B8; B5 consumed alcohol)): 8.09 ng/mL and 8.83 ng/mL and 6.28 ng/mL and 6.29 ng/mL and 8.86 ng/mL and 7.97 ng/mL and 9.45 ng/mL and 11.04 ng/mL and 8.02 ng/mL and 9.77 ng/mL and 7.69 ng/mL and 8.43 ng/mL and 7.52 ng/mL and 6.76 ng/mL | Concentration, individual subjects ([3]; plasma, 24 h, one value per subject (A1-A6, A8, B1-B8; B5 consumed alcohol)): 7.01 ng/mL and 7.87 ng/mL and 5.83 ng/mL and 6.96 ng/mL and 7.45 ng/mL and 7.77 ng/mL and 8.74 ng/mL and 8.99 ng/mL and 7.52 ng/mL and 8.66 ng/mL and 7.57 ng/mL and 8.32 ng/mL and 5.43 ng/mL and 6.77 ng/mL | Concentration, individual subjects ([3]; plasma, 48 h, one value per subject (A1-A6, A8, B1-B8; B5 consumed alcohol)): 4.72 ng/mL and 5.20 ng/mL and 6.30 ng/mL and 3.61 ng/mL and 5.16 ng/mL and 4.16 ng/mL and 6.22 ng/mL and 4.74 ng/mL and 6.11 ng/mL and 5.31 ng/mL and 5.10 ng/mL and 5.12 ng/mL and 5.25 ng/mL and 4.06 ng/mL and 3.12 ng/mL | Cmax ([3]; human, plasma, oral, 2 mg, clonazepam, peak of the mean clinical concentration-time profile over 96 hours): 13.5 ng/mL | concentration at 0 h [3, 5]: 0 ng/mL | concentration at 0 h [3, 6]: 0 ng/mL | concentration at 0 h [3, 7]: 0 ng/mL | concentration at 0.5 h [3, 5]: 6.65 ng/mL | concentration at 0.5 h [3, 6]: 7.13 ± 7.06 ng/mL | concentration at 1 h [3, 5]: 13 ng/mL | concentration at 1 h [3, 6]: 13.4 ± 5.29 ng/mL | concentration at 1.5 h [3, 5]: 13.5 ng/mL | concentration at 1.5 h [3, 6]: 13.9 ± 3.71 ng/mL | concentration at 2 h [3, 5]: 13.1 ng/mL | concentration at 2 h [3, 6]: 13.3 ± 2.82 ng/mL | concentration at 2 h [3, 7]: 13.7 ng/mL | concentration at 3 h [3, 5]: 12.7 ng/mL | concentration at 3 h [3, 6]: 12.9 ± 2.36 ng/mL | concentration at 3 h [3, 7]: 12.5 ng/mL | concentration at 4 h ([3]; human, plasma, 2 mg, plasma, 4 h, MEAN column of the sheet with 15 subject columns, read-out: Concentration, MEAN of raw data sheet): 12.7 ng/mL | concentration at 4 h ([3]; human, plasma, 2 mg, plasma, 4 h, mean ±1 SD N=14, read-out: Concentration, Referent): 13 ± 1.82 ng/mL | concentration at 4 h ([3]; human, plasma, 2 mg, plasma, 4 h, one value per subject (A1-A6, A8, B1-B8; B5 consumed alcohol), read-out: Concentration, individual subjects): 12.7 ng/mL | concentration at 6 h ([3]; human, plasma, 2 mg, plasma, 6 h, MEAN column of the sheet with 15 subject columns, read-out: Concentration, MEAN of raw data sheet): 10.9 ng/mL | concentration at 6 h ([3]; human, plasma, 2 mg, plasma, 6 h, mean ±1 SD N=14, read-out: Concentration, Referent): 11.1 ± 1.87 ng/mL | concentration at 8 h ([3]; human, plasma, 2 mg, plasma, 8 h, MEAN column of the sheet with 15 subject columns, read-out: Concentration, MEAN of raw data sheet): 9.62 ng/mL | concentration at 8 h ([3]; human, plasma, 2 mg, plasma, 8 h, mean ±1 SD N=14, read-out: Concentration, Referent): 9.8 ± 1.43 ng/mL | concentration at 8 h ([3]; human, plasma, 2 mg, plasma, 8 h, one value per subject (A1-A6, A8, B1-B8; B5 consumed alcohol), read-out: Concentration, individual subjects): 9.63 ng/mL | concentration at 10 h ([3]; human, plasma, 2 mg, plasma, 10 h, MEAN column of the sheet with 15 subject columns, read-out: Concentration, MEAN of raw data sheet): 9.05 ng/mL | concentration at 10 h ([3]; human, plasma, 2 mg, plasma, 10 h, mean ±1 SD N=14, read-out: Concentration, Referent): 9.23 ± 1.31 ng/mL | concentration at 10 h ([3]; human, plasma, 2 mg, plasma, 10 h, one value per subject (A1-A6, A8, B1-B8; B5 consumed alcohol), read-out: Concentration, individual subjects): 9.31 ng/mL | concentration at 12 h ([3]; human, plasma, 2 mg, plasma, 12 h, MEAN column of the sheet with 15 subject columns, read-out: Concentration, MEAN of raw data sheet): 8.25 ng/mL | concentration at 12 h ([3]; human, plasma, 2 mg, plasma, 12 h, mean ±1 SD N=14, read-out: Concentration, Referent): 8.39 ± 1.22 ng/mL | concentration at 12 h ([3]; human, plasma, 2 mg, plasma, 12 h, one value per subject (A1-A6, A8, B1-B8; B5 consumed alcohol), read-out: Concentration, individual subjects): 8.78 ng/mL | concentration at 24 h ([3]; human, plasma, 2 mg, plasma, 24 h, MEAN column of the sheet with 15 subject columns, read-out: Concentration, MEAN of raw data sheet): 7.53 ng/mL | concentration at 24 h ([3]; human, plasma, 2 mg, plasma, 24 h, mean ±1 SD N=14, read-out: Concentration, Referent): 7.65 ± 0.93 ng/mL | concentration at 24 h ([3]; human, plasma, 2 mg, plasma, 24 h, one value per subject (A1-A6, A8, B1-B8; B5 consumed alcohol), read-out: Concentration, individual subjects): 8.02 ng/mL | concentration at 48 h ([3]; human, plasma, 2 mg, plasma, 48 h, MEAN column of the sheet with 15 subject columns, read-out: Concentration, MEAN of raw data sheet): 4.95 ng/mL | concentration at 48 h ([3]; human, plasma, 2 mg, plasma, 48 h, mean ±1 SD N=14, read-out: Concentration, Referent): 5.04 ± 0.87 ng/mL | concentration at 72 h [3, 5]: 3.13 ng/mL | concentration at 72 h [3, 6]: 3.22 ± 0.71 ng/mL | concentration at 96 h [3, 5]: 1.89 ng/mL | concentration at 96 h [3, 6]: 1.95 ± 0.58 ng/mL | AUC [3, 8]: 529 ± 80.8 ng·h/mL | Cmax [3, 8]: 16.2 ± 4.28 ng/mL | half-life [3, 8]: 49 ± 7.79 h | k el [3, 8]: 5.83e-06 s⁻¹ | Tmax ([3]; human, plasma, Referent clinical, clonazepam 2 mg tablet oral, N = 14, median, read-out: Tmax): 1.5 h
